# In ChEMBL document CHEMBL1155491, “Acylurea connected straight chain hydroxamates as novel histone deacetylase inhibitors: Synthesis, SAR, and in vivo antitumor activity” (Bioorg Med Chem Lett, 2010):
# Calls of active or inactive are those of the source. The calls are words filed in the database; no cut-off is given here.
# How the values were obtained:
# Histone deacetylase 8 = biological target: T1, Histone deacetylase 8 (Homo sapiens, UniProt Q9BY41); assay: Inhibition of HDAC8
# T1 sequence (Q9BY41 whole entry): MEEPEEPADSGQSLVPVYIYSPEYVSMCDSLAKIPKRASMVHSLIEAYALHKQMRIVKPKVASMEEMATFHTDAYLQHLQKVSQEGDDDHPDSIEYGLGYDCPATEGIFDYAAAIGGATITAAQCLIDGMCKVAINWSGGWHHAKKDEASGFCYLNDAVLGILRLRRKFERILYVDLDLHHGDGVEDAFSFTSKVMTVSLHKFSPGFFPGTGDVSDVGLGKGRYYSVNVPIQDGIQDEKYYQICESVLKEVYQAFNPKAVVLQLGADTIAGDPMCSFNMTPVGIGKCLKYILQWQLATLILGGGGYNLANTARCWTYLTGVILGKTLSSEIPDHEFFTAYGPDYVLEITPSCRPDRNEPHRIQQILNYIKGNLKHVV
# Histone deacetylase 2 = Histone deacetylase 2 (Homo sapiens, UniProt Q92769)
# Sequence of Histone deacetylase 2 (Q92769 whole entry): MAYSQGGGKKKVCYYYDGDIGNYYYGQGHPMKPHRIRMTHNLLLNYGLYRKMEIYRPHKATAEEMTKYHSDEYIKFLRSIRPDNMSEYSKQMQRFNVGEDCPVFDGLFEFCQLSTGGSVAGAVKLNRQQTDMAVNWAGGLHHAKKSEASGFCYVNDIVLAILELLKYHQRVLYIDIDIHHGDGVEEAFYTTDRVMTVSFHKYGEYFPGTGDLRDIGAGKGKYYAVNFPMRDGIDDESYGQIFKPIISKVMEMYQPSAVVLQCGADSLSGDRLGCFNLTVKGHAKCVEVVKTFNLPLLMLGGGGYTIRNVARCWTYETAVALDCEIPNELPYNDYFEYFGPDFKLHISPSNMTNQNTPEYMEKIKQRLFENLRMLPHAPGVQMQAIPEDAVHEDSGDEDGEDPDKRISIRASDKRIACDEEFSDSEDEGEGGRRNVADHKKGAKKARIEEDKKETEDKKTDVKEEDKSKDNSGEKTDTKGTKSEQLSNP
# Histone deacetylase 3 = Histone deacetylase 3 (Homo sapiens, UniProt O15379); assay: Inhibition of HDAC3
# Sequence of Histone deacetylase 3 (O15379 whole entry): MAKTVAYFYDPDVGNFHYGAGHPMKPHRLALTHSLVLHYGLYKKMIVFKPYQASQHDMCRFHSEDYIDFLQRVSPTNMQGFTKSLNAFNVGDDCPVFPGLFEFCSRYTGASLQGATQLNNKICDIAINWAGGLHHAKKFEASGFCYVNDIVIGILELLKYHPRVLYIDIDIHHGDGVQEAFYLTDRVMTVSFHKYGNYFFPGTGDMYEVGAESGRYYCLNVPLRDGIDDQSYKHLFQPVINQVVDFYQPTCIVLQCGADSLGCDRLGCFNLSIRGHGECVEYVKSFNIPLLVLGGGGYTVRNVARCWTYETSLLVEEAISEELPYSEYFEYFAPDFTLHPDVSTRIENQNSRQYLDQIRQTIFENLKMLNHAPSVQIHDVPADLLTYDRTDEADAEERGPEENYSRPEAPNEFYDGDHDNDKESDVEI
# Histone deacetylase 4 = Histone deacetylase 4 (Homo sapiens, UniProt P56524); assay: Inhibition of HDAC4
# Histone deacetylase 5 = Histone deacetylase 5 (Homo sapiens, UniProt Q9UQL6); assay: Inhibition of HDAC5
# Sequence of Histone deacetylase 5 (Q9UQL6 whole entry): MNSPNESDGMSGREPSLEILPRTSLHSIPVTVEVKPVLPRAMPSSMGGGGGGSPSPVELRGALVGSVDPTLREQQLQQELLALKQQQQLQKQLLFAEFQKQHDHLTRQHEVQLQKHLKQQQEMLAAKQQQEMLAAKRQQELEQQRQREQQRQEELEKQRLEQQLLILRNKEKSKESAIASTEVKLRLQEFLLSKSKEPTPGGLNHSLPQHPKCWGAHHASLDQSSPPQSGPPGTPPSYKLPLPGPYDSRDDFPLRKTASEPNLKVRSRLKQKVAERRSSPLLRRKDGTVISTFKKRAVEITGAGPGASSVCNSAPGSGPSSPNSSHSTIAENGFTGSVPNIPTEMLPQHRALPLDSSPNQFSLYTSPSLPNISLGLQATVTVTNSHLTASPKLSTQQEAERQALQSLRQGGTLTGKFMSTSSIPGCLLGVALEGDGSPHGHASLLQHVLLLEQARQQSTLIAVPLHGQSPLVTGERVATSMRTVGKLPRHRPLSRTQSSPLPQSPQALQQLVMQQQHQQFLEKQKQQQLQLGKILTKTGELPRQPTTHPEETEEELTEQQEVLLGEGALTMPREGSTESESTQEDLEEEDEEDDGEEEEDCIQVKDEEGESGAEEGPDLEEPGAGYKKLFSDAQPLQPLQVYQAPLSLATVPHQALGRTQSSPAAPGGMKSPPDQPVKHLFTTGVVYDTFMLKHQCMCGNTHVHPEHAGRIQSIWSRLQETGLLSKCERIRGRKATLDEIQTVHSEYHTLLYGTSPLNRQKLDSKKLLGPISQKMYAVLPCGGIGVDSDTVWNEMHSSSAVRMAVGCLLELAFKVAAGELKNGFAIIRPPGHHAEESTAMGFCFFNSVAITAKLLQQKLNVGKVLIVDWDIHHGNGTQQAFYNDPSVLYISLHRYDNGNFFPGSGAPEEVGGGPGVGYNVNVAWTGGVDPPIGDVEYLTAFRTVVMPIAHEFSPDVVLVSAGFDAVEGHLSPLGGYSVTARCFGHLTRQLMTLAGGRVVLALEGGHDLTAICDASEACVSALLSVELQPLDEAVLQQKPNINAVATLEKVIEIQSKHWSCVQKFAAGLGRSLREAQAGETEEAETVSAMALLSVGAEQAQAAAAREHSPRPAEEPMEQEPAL
# [1] = biological target: T2, Protein deacetylase HDAC6 (Homo sapiens, UniProt Q9UBN7); assay: Inhibition of HDAC6
# T2 sequence (Q9UBN7 whole entry): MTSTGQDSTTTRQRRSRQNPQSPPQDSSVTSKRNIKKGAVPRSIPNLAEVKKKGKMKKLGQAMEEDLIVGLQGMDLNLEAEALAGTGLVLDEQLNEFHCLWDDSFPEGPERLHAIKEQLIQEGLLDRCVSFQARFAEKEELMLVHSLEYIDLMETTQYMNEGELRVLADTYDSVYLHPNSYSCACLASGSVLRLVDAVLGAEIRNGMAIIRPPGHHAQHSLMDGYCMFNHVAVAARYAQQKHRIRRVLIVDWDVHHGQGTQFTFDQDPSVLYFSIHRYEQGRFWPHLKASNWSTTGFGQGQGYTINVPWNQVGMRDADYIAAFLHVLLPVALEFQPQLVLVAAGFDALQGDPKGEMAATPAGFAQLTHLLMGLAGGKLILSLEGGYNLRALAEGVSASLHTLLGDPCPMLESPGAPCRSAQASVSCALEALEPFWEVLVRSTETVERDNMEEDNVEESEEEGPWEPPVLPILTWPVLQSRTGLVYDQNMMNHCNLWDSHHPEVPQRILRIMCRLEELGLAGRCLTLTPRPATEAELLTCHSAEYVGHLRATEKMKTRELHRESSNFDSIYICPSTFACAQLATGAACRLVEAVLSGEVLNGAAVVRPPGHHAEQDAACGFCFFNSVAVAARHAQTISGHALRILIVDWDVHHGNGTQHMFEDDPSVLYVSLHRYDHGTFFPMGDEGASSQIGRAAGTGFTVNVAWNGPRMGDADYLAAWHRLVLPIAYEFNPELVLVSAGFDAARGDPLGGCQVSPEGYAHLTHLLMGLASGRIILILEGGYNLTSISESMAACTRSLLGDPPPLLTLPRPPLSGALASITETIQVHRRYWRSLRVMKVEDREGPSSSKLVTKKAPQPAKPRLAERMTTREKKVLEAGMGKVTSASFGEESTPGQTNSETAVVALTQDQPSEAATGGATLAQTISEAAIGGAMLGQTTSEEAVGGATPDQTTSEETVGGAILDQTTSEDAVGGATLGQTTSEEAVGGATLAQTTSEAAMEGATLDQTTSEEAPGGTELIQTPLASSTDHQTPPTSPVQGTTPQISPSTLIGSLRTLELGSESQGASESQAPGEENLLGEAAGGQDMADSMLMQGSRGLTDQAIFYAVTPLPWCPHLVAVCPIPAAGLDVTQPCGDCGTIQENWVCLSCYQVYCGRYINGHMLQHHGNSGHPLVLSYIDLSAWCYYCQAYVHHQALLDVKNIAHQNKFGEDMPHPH
# Histone deacetylase 7 = Histone deacetylase 7 (Homo sapiens, UniProt Q8WUI4); assay: Inhibition of HDAC7
# Sequence of Histone deacetylase 7 (Q8WUI4 whole entry, looked up): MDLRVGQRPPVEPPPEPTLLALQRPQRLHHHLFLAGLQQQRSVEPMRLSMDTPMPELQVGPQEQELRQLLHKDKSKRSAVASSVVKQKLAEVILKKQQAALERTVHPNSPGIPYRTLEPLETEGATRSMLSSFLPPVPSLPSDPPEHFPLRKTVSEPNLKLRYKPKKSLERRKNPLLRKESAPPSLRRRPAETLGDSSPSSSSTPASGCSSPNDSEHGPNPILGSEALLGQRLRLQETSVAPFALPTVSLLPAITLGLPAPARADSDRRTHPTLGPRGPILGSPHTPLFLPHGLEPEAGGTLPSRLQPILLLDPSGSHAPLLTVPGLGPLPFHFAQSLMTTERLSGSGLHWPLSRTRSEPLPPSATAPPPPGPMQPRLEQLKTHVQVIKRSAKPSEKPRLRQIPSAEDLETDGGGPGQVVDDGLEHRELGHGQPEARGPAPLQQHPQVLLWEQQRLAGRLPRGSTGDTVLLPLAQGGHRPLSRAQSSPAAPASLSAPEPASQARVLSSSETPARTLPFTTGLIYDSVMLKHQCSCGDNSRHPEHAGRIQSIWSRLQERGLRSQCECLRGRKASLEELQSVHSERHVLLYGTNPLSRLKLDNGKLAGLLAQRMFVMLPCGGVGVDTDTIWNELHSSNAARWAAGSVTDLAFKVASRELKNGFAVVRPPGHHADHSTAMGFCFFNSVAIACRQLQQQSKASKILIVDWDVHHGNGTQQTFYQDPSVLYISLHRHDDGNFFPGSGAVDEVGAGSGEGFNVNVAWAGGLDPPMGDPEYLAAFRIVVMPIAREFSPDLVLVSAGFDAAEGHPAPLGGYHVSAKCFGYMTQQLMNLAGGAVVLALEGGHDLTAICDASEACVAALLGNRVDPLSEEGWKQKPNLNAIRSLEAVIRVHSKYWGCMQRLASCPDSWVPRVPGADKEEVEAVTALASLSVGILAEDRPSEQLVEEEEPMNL
# Histone deacetylase 9 = Histone deacetylase 9 (Homo sapiens, UniProt Q9UKV0); assay: Inhibition of HDAC9
# Sequence of Histone deacetylase 9 (Q9UKV0 whole entry): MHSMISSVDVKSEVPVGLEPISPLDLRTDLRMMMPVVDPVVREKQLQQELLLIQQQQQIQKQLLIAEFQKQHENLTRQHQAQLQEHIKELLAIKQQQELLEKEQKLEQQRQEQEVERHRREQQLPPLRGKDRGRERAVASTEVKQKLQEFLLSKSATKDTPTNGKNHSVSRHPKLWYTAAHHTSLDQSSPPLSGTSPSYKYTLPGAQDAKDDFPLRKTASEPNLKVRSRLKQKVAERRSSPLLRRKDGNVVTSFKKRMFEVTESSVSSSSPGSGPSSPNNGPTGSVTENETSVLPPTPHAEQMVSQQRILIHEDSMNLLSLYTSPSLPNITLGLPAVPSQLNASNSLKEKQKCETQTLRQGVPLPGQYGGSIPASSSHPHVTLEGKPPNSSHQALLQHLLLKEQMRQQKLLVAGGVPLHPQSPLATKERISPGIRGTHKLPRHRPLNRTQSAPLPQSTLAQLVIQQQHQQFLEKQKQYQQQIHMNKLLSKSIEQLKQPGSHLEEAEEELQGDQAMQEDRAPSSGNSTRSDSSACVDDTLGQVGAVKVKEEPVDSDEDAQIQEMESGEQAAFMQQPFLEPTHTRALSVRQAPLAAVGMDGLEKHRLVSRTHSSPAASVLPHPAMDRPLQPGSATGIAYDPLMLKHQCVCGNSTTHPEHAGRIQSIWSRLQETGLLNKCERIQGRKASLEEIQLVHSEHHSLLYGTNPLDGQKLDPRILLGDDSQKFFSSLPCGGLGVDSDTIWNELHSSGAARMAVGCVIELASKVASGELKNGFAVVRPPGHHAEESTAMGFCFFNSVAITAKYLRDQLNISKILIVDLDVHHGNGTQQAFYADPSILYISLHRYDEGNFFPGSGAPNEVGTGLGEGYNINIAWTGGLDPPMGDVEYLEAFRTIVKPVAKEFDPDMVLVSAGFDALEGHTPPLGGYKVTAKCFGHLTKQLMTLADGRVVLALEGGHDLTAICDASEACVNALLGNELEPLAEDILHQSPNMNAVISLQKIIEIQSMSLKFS
# [2] = biological target: T3, Polyamine deacetylase HDAC10 (Homo sapiens, UniProt Q969S8); assay: Inhibition of HDAC10
# T3 sequence (Q969S8 whole entry): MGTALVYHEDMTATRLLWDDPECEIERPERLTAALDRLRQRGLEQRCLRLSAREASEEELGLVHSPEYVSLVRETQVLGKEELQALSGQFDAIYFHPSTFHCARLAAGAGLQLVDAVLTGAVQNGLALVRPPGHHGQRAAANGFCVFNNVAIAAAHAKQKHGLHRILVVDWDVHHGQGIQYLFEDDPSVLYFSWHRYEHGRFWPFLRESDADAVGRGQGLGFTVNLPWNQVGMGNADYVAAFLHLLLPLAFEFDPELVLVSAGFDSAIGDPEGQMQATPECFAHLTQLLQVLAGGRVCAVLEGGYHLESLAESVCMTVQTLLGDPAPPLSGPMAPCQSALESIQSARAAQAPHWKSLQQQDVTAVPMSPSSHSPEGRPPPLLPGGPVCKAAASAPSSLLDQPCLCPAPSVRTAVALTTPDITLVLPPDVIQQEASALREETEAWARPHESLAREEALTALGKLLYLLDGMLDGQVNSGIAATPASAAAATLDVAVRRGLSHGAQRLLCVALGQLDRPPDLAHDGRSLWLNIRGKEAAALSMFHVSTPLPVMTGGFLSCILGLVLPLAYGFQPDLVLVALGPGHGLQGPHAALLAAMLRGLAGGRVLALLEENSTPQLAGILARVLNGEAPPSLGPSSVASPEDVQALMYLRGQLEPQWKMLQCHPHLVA
# Histone deacetylase 11 = biological target: T4, Histone deacetylase 11 (Homo sapiens, UniProt Q96DB2); assay: Inhibition of HDAC11
# T4 sequence (Q96DB2 whole entry): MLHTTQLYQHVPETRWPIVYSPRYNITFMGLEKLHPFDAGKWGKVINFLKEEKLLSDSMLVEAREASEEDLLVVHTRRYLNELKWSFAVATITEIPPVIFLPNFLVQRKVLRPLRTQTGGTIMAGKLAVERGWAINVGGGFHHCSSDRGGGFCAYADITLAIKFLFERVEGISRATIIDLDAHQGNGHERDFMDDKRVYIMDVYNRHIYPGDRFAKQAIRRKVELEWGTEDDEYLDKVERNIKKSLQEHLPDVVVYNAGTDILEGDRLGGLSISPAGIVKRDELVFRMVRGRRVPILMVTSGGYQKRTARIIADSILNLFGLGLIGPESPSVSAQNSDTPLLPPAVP
# HCT-116 = assay: Antiproliferative activity against human HCT116 cells; type: functional, cell-based
# A2780 = assay: Antiproliferative activity against human A2780 cells; type: functional, cell-based
# PC-3 = assay: Antiproliferative activity against human PC3 cells; type: functional, cell-based
# [3] = Solubility at pH 7; type: physicochemical; conditions: buffer
# [4] = Thermodynamic solubility at pH 7.4; type: physicochemical; conditions: buffer, read-out: Therm_solubility
# [5] = Half life in human liver microsome; type: ADME; conditions: liver microsomes
# [6] = Half life in rat liver microsome; type: ADME; conditions: liver microsomes
# [7] = Half life in mouse liver microsome; type: ADME; conditions: liver microsomes
# [8] = Octanol-water distribution coefficient, log D of the compound; type: physicochemical
# Histone deacetylase 1 [9] = biological target: T5, Histone deacetylase 1 (Homo sapiens, UniProt Q13547); assay: Inhibition of HDAC1 in human COLO205 cells assessed as induction of histone H3 acetylation at 10 uM by Western-immuno blotting; type: cell-based; conditions: COLO 205
# T5 sequence (Q13547 whole entry): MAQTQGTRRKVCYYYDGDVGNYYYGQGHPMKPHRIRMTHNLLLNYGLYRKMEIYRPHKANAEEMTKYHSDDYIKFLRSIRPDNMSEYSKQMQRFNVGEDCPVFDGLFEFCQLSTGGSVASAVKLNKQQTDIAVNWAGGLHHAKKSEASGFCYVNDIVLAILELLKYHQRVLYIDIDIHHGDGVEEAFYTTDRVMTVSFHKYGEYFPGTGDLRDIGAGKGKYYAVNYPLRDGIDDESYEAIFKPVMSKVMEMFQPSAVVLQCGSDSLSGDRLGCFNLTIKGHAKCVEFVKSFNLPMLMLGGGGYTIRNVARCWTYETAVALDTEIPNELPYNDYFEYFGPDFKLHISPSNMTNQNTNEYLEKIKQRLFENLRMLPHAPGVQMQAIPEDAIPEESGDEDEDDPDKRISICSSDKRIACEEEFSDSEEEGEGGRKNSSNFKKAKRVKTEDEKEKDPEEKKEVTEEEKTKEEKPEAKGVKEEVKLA
# Histone deacetylase 1 [10] = biological target: T5, Histone deacetylase 1
# Histone deacetylase 1 [11] = biological target: T5, Histone deacetylase 1; remark: listed apart in the source
compound,measurement,setting,value
O=C(CCCCCNC(=O)NC(=O)c1ccc(Br)cc1)NO,Ki,Histone deacetylase 8,0.315 µM
same,Ki,Histone deacetylase 2,0.012 µM
same,Ki,Histone deacetylase 3,0.008 µM
same,Ki,Histone deacetylase 4,0.006 µM
same,Ki,Histone deacetylase 5,0.013 µM
same,Ki,[1],0.008 µM
same,Ki,Histone deacetylase 7,0.031 µM
same,Ki,Histone deacetylase 9,0.006 µM
same,Ki,[2],0.009 µM
same,Ki,Histone deacetylase 11,0.009 µM
same,IC50,HCT-116,0.6 µM
same,IC50,A2780,0.45 µM
same,IC50,PC-3,0.66 µM
same,solubility,[3],51 µM
same,solubility thermodynamic,[4],15 µg/mL
same,half-life,[5],> 60 min
same,half-life,[6],53 min
same,half-life,[7],31 min
same,logD,[8],1.72
same,Activity,Histone deacetylase 1 [9],Active
same,IC50,Histone deacetylase 1 [10],0.013 µM
same,Ki,Histone deacetylase 1 [10],0.008 µM
same,IC50,Histone deacetylase 1 [11],0.87 µM
